# pIC50: −log10 of the molar value. The source made the active and inactive calls. The calls are words filed in the database; no cut-off is given here.
# How the values were obtained:
# Assay type in all cases: functional, cell-based
# [1] = organism: Mus musculus; test: Cell viability in mouse RAW264.7 cells by LeTx protection assay
# [2] = tested on: CHO; test: Blockade of PA-induced toxicity in CHO cells expressing TEM8 assessed as cell viability at 5 uM after 48 hrs; conditions: Cricetulus griseus
# [3] = tested on: KDR; test: Protection of SLT-VEGF induced toxicity in 293/KDR cells; conditions: Homo sapiens
# [4] = tested on: CHO; test: Inhibition of PA-induced apoptosis in CHO cells expressing TEM8 receptor cells at 5 uM after 24 hrs; conditions: Cricetulus griseus
# [5] = tested on: CHO; test: Inhibition of LFn-Lip uptake in CHO cells expressing TEM8 receptor at 100 uM after 1 hrs; conditions: Cricetulus griseus
# [6] = tested on: CHO; test: Inhibition of LFn-A1 uptake in CHO cells expressing TEM8 receptor at 100 uM; conditions: Cricetulus griseus
smiles,measurement,setting,value
NCCCSC[C@H]1O[C@@H]2O[C@H]3[C@H](O)[C@@H](O[C@H]4[C@H](O)[C@@H](O)[C@@H](O[C@H]5[C@H](O)[C@@H](O)[C@@H](O[C@H]6[C@H](O)[C@@H](O)[C@@H](O[C@H]7[C@H](O)[C@@H](O)[C@@H](O[C@H]8[C@H](O)[C@@H](O)[C@@H](OC1[C@H](O)[C@H]2O)O[C@@H]8CSCCCN)O[C@@H]7CSCCCN)O[C@@H]6CSCCCN)O[C@@H]5CSCCCN)O[C@@H]4CSCCCN)[C@@H](O)O[C@@H]3CSCCCN,pIC50,[1],5.15
same,Activity,[2],Active
same,Activity,[3],inactive
same,Activity,[4],Active
same,Activity,[5],inactive
same,Activity,[6],Active
